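The compound was tested at five concentrations on cells cultured in 96-well plates, with a 48-hour exposure period. At the GI50, growth is halved.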 Active and inactive are the calls of the source. No stated cut-off is given here; in the data, active = GI50 up to about 1.1 µM and inactive = higher.
Tests used:
Assay in all cases: NCI-60 cell line screen, 48 h
[1] = tested on: 786-0
[2] = tested on: A498
[3] = tested on: A549
[4] = tested on: ACHN
[5] = tested on: BT-549
[6] = tested on: CAKI-1
[7] = tested on: CCRF-CEM
[8] = tested on: COLO 205
[9] = tested on: DU-145
[10] = tested on: EKVX
[11] = tested on: HCC 2998
[12] = tested on: HCT-116
[13] = tested on: HCT-15
[14] = tested on: HL-60
[15] = tested on: HOP-92
[16] = tested on: HT-29
[17] = tested on: Hs-578T
[18] = tested on: IGROV-1
[19] = tested on: K562
[20] = tested on: KM12
[21] = tested on: LOX IMVI
[22] = tested on: M14
[23] = tested on: MCF7
[24] = tested on: MDA-MB-231
[25] = tested on: MDA-MB-435
[26] = tested on: MDA-N
[27] = tested on: MOLT-4
[28] = tested on: Malme-3M
[29] = tested on: NCI-H226
[30] = tested on: NCI-H23
[31] = tested on: NCI-H460
[32] = tested on: NCI-H522
[33] = tested on: NCI/ADR-RES
[34] = tested on: OVCAR-3
[35] = tested on: OVCAR-4
[36] = tested on: OVCAR-5
[37] = tested on: OVCAR-8
[38] = tested on: PC-3
[39] = tested on: SF-268
[40] = tested on: SF-295
[41] = tested on: SF-539
[42] = tested on: SK-MEL-28
[43] = tested on: SK-MEL-2
[44] = tested on: SK-MEL-5
[45] = tested on: SK-OV-3
[46] = tested on: SN12C
[47] = tested on: SNB-19
[48] = tested on: SW-620
[49] = tested on: T47D
[50] = tested on: TK-10
[51] = tested on: U-251
[52] = tested on: UACC-257
[53] = tested on: UACC-62
[54] = tested on: UO-31
[55] = tested on: HOP-62
[56] = tested on: RPMI-8226
[57] = tested on: RXF 393
[58] = tested on: SNB-75

## N#Cc1c2c(c(N3CCOCC3)n3c1nc1ccccc13)CCCC2
[1]
  GI50: 16.3 µM (inactive)
[2]
  GI50: 19 µM (inactive)
[3]
  GI50: 23.8 µM (inactive)
[4]
  GI50: 14.8 µM (inactive)
[5]
  GI50: 40.1 µM (inactive)
[6]
  GI50: 19.1 µM (inactive)
[7]
  GI50: 2.75 µM (inactive)
[8]
  GI50: 20.9 µM (inactive)
[9]
  GI50: 19 µM (inactive)
[10]
  GI50: 16.2 µM (inactive)
[11]
  GI50: 21.8 µM (inactive)
[12]
  GI50: 13.9 µM (inactive)
[13]
  GI50: 17.8 µM
[14]
  GI50: 13.8 µM (inactive)
[15]
  GI50: 17.1 µM (inactive)
[16]
  GI50: 16.4 µM (inactive)
[17]
  GI50: > 100 µM (inactive)
[18]
  GI50: 16.6 µM (inactive)
[19]
  GI50: 25.1 µM (inactive)
[20]
  GI50: > 100 µM (inactive)
[21]
  GI50: 17.3 µM (inactive)
[22]
  GI50: 21.5 µM (inactive)
[23]
  GI50: 26.2 µM (inactive)
[24]
  GI50: 21.3 µM (inactive)
[25]
  GI50: 20.2 µM (inactive)
[26]
  GI50: 18.4 µM (inactive)
[27]
  GI50: 8.81 µM (inactive)
[28]
  GI50: 17.7 µM (inactive)
[29]
  GI50: 14 µM (inactive)
[30]
  GI50: 19.5 µM (inactive)
[31]
  GI50: 23.7 µM (inactive)
[32]
  GI50: 16.3 µM (inactive)
[33]
  GI50: 17.9 µM (inactive)
[34]
  GI50: 18.8 µM (inactive)
[35]
  GI50: 20 µM (inactive)
[36]
  GI50: 21.1 µM (inactive)
[37]
  GI50: 19.2 µM (inactive)
[38]
  GI50: 21.9 µM (inactive)
[39]
  GI50: > 100 µM (inactive)
[40]
  GI50: 17.9 µM (inactive)
[41]
  GI50: 19.1 µM (inactive)
[42]
  GI50: 23.5 µM (inactive)
[43]
  GI50: 16.5 µM (inactive)
[44]
  GI50: 18.7 µM (inactive)
[45]
  GI50: 22.6 µM (inactive)
[46]
  GI50: 19.9 µM (inactive)
[47]
  GI50: 16.6 µM (inactive)
[48]
  GI50: 14.4 µM (inactive)
[49]
  GI50: 19.2 µM (inactive)
[50]
  GI50: 23.1 µM (inactive)
[51]
  GI50: 14.3 µM (inactive)
[52]
  GI50: 29.2 µM (inactive)
[53]
  GI50: 22.3 µM (inactive)
[54]
  GI50: 18.4 µM (inactive)

## C=CCN(c1cc(OCc2ccccc2)c(NC(C)=O)cc1[N+](=O)[O-])S(C)(=O)=O
[1]
  GI50: 20.6 µM (inactive)
[2]
  GI50: 19.3 µM (inactive)
[3]
  GI50: 33.2 µM (inactive)
[4]
  GI50: 52.7 µM (inactive)
[5]
  GI50: 28.8 µM (inactive)
[6]
  GI50: 42 µM (inactive)
[7]
  GI50: > 100 µM (inactive)
[8]
  GI50: > 100 µM (inactive)
[9]
  GI50: > 100 µM (inactive)
[10]
  GI50: 7.05 µM (inactive)
[11]
  GI50: > 100 µM (inactive)
[12]
  GI50: 28.5 µM (inactive)
[13]
  GI50: > 100 µM
[14]
  GI50: > 100 µM (inactive)
[55]
  GI50: 22 µM (inactive)
[15]
  GI50: 19.2 µM (inactive)
[16]
  GI50: > 100 µM (inactive)
[17]
  GI50: 24.2 µM (inactive)
[18]
  GI50: 21.1 µM (inactive)
[19]
  GI50: > 100 µM (inactive)
[20]
  GI50: > 100 µM (inactive)
[21]
  GI50: 50.6 µM (inactive)
[22]
  GI50: 38.3 µM (inactive)
[23]
  GI50: 52.2 µM (inactive)
[24]
  GI50: 15.7 µM (inactive)
[25]
  GI50: > 100 µM (inactive)
[26]
  GI50: > 100 µM (inactive)
[27]
  GI50: > 100 µM (inactive)
[28]
  GI50: 26.7 µM (inactive)
[29]
  GI50: 12.7 µM (inactive)
[30]
  GI50: 18.4 µM (inactive)
[31]
  GI50: > 100 µM (inactive)
[32]
  GI50: 35.5 µM (inactive)
[33]
  GI50: 29.6 µM (inactive)
[34]
  GI50: 34.9 µM (inactive)
[35]
  GI50: > 100 µM (inactive)
[36]
  GI50: > 100 µM (inactive)
[37]
  GI50: 23.1 µM (inactive)
[38]
  GI50: > 100 µM (inactive)
[56]
  GI50: 46.7 µM (inactive)
[57]
  GI50: 18.7 µM (inactive)
[39]
  GI50: 21.3 µM (inactive)
[40]
  GI50: 23.5 µM (inactive)
[41]
  GI50: 17.2 µM (inactive)
[42]
  GI50: > 100 µM (inactive)
[43]
  GI50: 26.9 µM (inactive)
[44]
  GI50: > 100 µM (inactive)
[45]
  GI50: 17.9 µM (inactive)
[46]
  GI50: 29 µM (inactive)
[47]
  GI50: 17.9 µM (inactive)
[58]
  GI50: 20 µM (inactive)
[48]
  GI50: > 100 µM (inactive)
[49]
  GI50: 29.3 µM (inactive)
[50]
  GI50: 36.5 µM (inactive)
[52]
  GI50: > 100 µM (inactive)
[53]
  GI50: 58.9 µM (inactive)
[54]
  GI50: 33.1 µM (inactive)

## C[C@]12CC[C@@H]3c4ccc(O)cc4CC[C@H]3[C@@H]1CC[C@@H]2OP(=O)(O)O
[1]
  GI50: > 100 µM (inactive)
[2]
  GI50: > 100 µM (inactive)
[3]
  GI50: > 100 µM (inactive)
[4]
  GI50: > 100 µM (inactive)
[5]
  GI50: > 100 µM (inactive)
[6]
  GI50: > 100 µM (inactive)
[7]
  GI50: > 100 µM (inactive)
[8]
  GI50: > 100 µM (inactive)
[9]
  GI50: > 100 µM (inactive)
[10]
  GI50: > 100 µM (inactive)
[11]
  GI50: > 100 µM (inactive)
[12]
  GI50: > 100 µM (inactive)
[13]
  GI50: > 100 µM
[14]
  GI50: > 100 µM (inactive)
[55]
  GI50: > 100 µM (inactive)
[15]
  GI50: > 100 µM (inactive)
[16]
  GI50: > 100 µM (inactive)
[17]
  GI50: > 100 µM (inactive)
[18]
  GI50: > 100 µM (inactive)
[19]
  GI50: > 100 µM (inactive)
[20]
  GI50: > 100 µM (inactive)
[21]
  GI50: > 100 µM (inactive)
[22]
  GI50: > 100 µM (inactive)
[23]
  GI50: > 100 µM (inactive)
[24]
  GI50: > 100 µM (inactive)
[25]
  GI50: > 100 µM (inactive)
[26]
  GI50: > 100 µM (inactive)
[27]
  GI50: > 100 µM (inactive)
[28]
  GI50: > 100 µM (inactive)
[29]
  GI50: > 100 µM (inactive)
[30]
  GI50: > 100 µM (inactive)
[31]
  GI50: > 100 µM (inactive)
[32]
  GI50: > 100 µM (inactive)
[33]
  GI50: > 100 µM (inactive)
[34]
  GI50: > 100 µM (inactive)
[35]
  GI50: > 100 µM (inactive)
[36]
  GI50: > 100 µM (inactive)
[37]
  GI50: > 100 µM (inactive)
[38]
  GI50: > 100 µM (inactive)
[56]
  GI50: > 100 µM (inactive)
[57]
  GI50: > 100 µM (inactive)
[39]
  GI50: > 100 µM (inactive)
[40]
  GI50: > 100 µM (inactive)
[41]
  GI50: > 100 µM (inactive)
[42]
  GI50: > 100 µM (inactive)
[43]
  GI50: > 100 µM (inactive)
[44]
  GI50: > 100 µM (inactive)
[45]
  GI50: > 100 µM (inactive)
[46]
  GI50: > 100 µM (inactive)
[47]
  GI50: > 100 µM (inactive)
[58]
  GI50: > 100 µM (inactive)
[48]
  GI50: > 100 µM (inactive)
[49]
  GI50: > 100 µM (inactive)
[50]
  GI50: > 100 µM (inactive)
[51]
  GI50: > 100 µM (inactive)
[52]
  GI50: > 100 µM (inactive)
[53]
  GI50: > 100 µM (inactive)
[54]
  GI50: > 100 µM (inactive)

From ChEMBL document CHEMBL1201862, “PubChem BioAssay data set” (2004)
